This is an account of results in US8168650B2, “Therapeutic uses of bicyclic ligands of sigma 2 receptor” (priority 2006, dated 2012).

Where two headings read alike, the source gives them in different places.

One experiment addresses T1, σ2 receptor (Rattus norvegicus, UniProt Q5U3Y7).
T1 construct: from tissue; host or cells: rat liver membrane homogenates
T1 sequence (Q5U3Y7 1-176): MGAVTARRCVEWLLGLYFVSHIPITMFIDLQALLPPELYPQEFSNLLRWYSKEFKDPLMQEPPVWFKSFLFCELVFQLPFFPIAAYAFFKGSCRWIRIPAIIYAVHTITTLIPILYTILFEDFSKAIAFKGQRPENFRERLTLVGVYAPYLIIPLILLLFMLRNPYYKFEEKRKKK
The experiment in a line: σ2 receptor binding assay, [3H]DTG or [3H]RHM-1. As to conditions: for σ1/σ2 Ratio: Ki for σ1/Ki for σ2.

The next experiment concerns caspase-3/7. As to the kind of experiment: Caspase-3/7 whole cell assay in MDA-MB-435 cells. As to conditions: MDA-MB-435, 24 h. Type of experiment: cell-based, human. Here is the method: FIG. 8 illustrates activation of caspase-3/7 in EMT-6 cells treated with the sigma-2 selective ligands, WC-II-26, SV119, or RHM-I-138. EMT6 cells were treated for 24 h with concentrations of 40 μM. MDA-MB-435 cells were treated with varying concentrations of sigma-2 selective ligands for 24 h. The highest level of caspase-3/7 activity was detected after 24 h in the presence of 80 μM SV119, 80 μM WC-II-26, and 50 μM RHM-I-138. The data are the mean±1 SEM of three independent experiments. p<0.05; * compared to the control.
Detection of intracellular cellular caspase-3/7 activity. The activation of endogenous caspase-3/7 by the sigma ligands was measured using the CellProbe HT caspase-3/7 whole cell assay (Beckman Coulter, Fullerton, Calif.). The cell permeable, nonfluorescent bisamide substrate, Z-DEVD-R110, was added to the intact cells to detect apoptosis. Upon specific cleavage by caspase-3/7, Z-DEVD-R110 is converted to a fluorescent compound, and the fluorescent signal can be measured as follows. After adding the substrate, Z-DEVD-R110, to the cells treated with a sigma ligand, the plate was incubated for an additional 1.5-2 hour, and the resulting fluorescence measured using a Victor 3 microplate fluorometer at excitation and emission wavelengths of 485 nm and 535 nm, respectively.

The subject of experiment [1] is EMT-6 cells. The experiment in a line: Annexin V labeling by flow cytometry in EMT-6 cells. The class given is cell-based, mouse. The source says:
(§1) Detection and quantification of apoptosis by flow cytometry. The early stages of apoptosis are characterized by translocation of phosphatidyl serine (PS) from the inner surface of the plasma membrane to the outer surface of the membrane. Annexin V, a protein with high affinity for PS, was used to detect the externalization of PS. In these experiments cell death was quantified flow cytometrically using both an annexin V assay (Apoptosis Detection Kit, R &D Systems, Minneapolis, Minn.) and a TUNEL assay (Apodirect Kit, BD Biosciences Pharmingen, San Diego, Calif.). All of the data was collected and analyzed using a FACS scan flow cytometer (Becton Dickinson, Fullerton, Calif.).
An early step in the induction of apoptosis is the membrane inversion of phosphatidyl serine (PS), which can be detected by the binding of annexin V to the cell surface. In early apoptosis, the cell membrane integrity is still intact, and the fluorescent marker, 7AAD, is excluded from the cell. Therefore, early apoptotic cells are annexin V positive and 7AAD negative. As apoptosis progresses, the cell membrane integrity is lost, and the cells become annexin V positive and 7AAD positive. EMT-6 cells treated with WC-II-26, SV119, and RHM-1-138 were analyzed by flow cytometry, and both early apoptotic death and late apoptotic death were detected after treatment with these three σ2 selective ligands (FIG. 7A). The percentage of EMT-6 cells with positive annexin V staining was 96.6±2.7%, 73.5±2.4%, and 48±6.4% after treatment with WCII-26, SV119 and RHM-I-138, respectively (FIG. 7B).
Background: A flow cytometer gives signals particle by particle.

Experiment [2] deals with EMT-6 cells. The experiment in a line: TUNEL staining of DNA fragmentation in EMT-6 cells (microscopy, flow cytometry). Conditions: for TUNEL positive cells (flow cytometry): untreated control 2%; for DNA fragmentation, TUNEL staining in nuclei (fluorescence microscopy): EMT-6, WC-II-26 40 μM 48 h, SV119 100 μM 16 h, RHM-I-138 40 μM 16 h. The class given is cell-based, mouse. Here is the method: Detection of apoptosis by fluorescence microscopy. The DNA fragmentation occurring during apoptosis was detected by the TUNEL staining method using the in situ cell death detection kit purchased from Roche Applied Science (Indianapolis, Ind.). Briefly, after treatment of EMT-6 cells with the sigma ligands, cells were fixed for 1 hour with 4% paraformaldehyde in phosphate buffered saline at room temperature and permeabilized with 0.1% Triton X-100 for 2 minutes on ice. The cells were then labeled by incubation with the TUNEL reaction mixture for 1 hour at 37° C. and analyzed using a Nikon inverted fluorescence microscope with a FITC filter.
as §1
To determine if the mechanism by which our σ2 selective ligands kill EMT-6 cells involves apoptosis, cells incubated with σ2 ligands were assayed by the TUNEL method. […] In these experiments, DNA fragmentation was detected by TUNEL staining and fluorescence microscopy (FIG. 6). Panel A: untreated cells. Panel B: Cells treated for 48 h with WC-II-26 (40 μM). Panel C: Cells treated for 16 h with SV119 (100 μM). Panel D: Cells treated for 16 h with RHM-I-138 (40 μM). […] At the designated times after treatment with WC-II-26, SV119 and RHM-I-138, TUNEL positive cells increased from 2% for the untreated control cells to 46%, 37% and 40%, respectively (FIG. 6B).

Experiment [3] deals with EMT-6 cells. As to the kind of experiment: Cytotoxicity assay (MTS) in EMT-6 cells. Type of experiment: cell-based, mouse.
Procedure: Cell culture conditions. EMT-6 mouse breast tumor cells^39 were cultured in DMEM supplemented with 10% fetal bovine serum. The cells were maintained at 37° C. in a humidified incubator with a 5% CO2/95% air atmosphere.
In these experiments, a number of sigma ligands, having a wide range of affinities for σ1 and σ2 receptors, were evaluated for their efficacy to kill EMT-6 cells. […] Cells were incubated for 24 hours or 48 hours with various concentrations of the sigma ligands. Cytotoxicity and cell viability were quantified using the MTS assay.
Experiment [4] has as its system MDA-MB-435 breast cancer cells. As to the kind of experiment: Cytotoxicity assay (MTS) in MDA-MB-435 cells. Type of experiment: cell-based. As to conditions: Homo sapiens. Here is the method: Cytotoxicity assay. The cytotoxic effect of the sigma ligands on EMT-6 cells was measured using the MTS colorimetric assay. MTS is bioreduced by cells into a colored formazan product with an absorbance at 490 nm. The quantity of the products is directly proportional to the number of viable cells in the culture. The MTS assay was performed using the CellTiter96Aqueous One Solution Assay (Promega, Madison, Wis.) according to the manufacturer's protocol. Briefly, EMT-6 cells were seeded at 2×10^3/well in 96-well plates on the day prior to treatment with the sigma ligand. Each sigma ligand was first dissolved in DMSO, and then serially diluted to get the desired concentration. The final concentration of DMSO in the cell culture medium was no more than 0.5%. After a 24 hour or 48 hour treatment with the various sigma ligands, cell death was assessed as follows. The CellTiter 96 AQueous One Solution Reagent was added to each well, and the plate was incubated for 2 hours at 37° C. The plate was then read at 490 nm in a Victor 3 plate reader (PerkinElmer Life and Analytical Sciences, Shelton, Conn.).
In these experiments, sigma ligands WC-II-26, SV119 and RHM-I-138 were evaluated for their efficacy to kill human MDA-MB-435 breast cancer cells. Cells were treated and analyzed as described for EMT-6 cells in Example 33. In these experiments cells were incubated for 24 hours or 48 hours with various concentrations of the sigma ligands.

The mark [5] stands for this setting: Ki for σ2 (nM), as listed in Table 2.
[6] abbreviates: Mus musculus, EMT6, 24 h, read-out: EC50 (μM, 24 hours), EMT-6, MTS assay, 24 hours.
[7] abbreviates: Mus musculus, EMT6, 48 h, read-out: EC50 (μM, 48 hours), EMT-6, MTS assay, 48 hours.
Where [8] appears, read: read-out: IC50 (μM), MDA-MB-435, 24 hours.
The mark [9] stands for this setting: MDA-MB-435, 48 hours, read-out: IC50 (μM, 48 hours).
Where [10] appears, read: Ki σ2, inhibiting binding of [3H]DTG or [3H]RHM-1 to rat liver homogenates, mean ± SEM.

Procedure for σ2 receptor: In vitro binding studies were conducted in order to determine the affinity of the target compounds at σ1 and σ2 receptors.
In this example, test compounds were dissolved in N,N-dimethylformamide (DMF), dimethylsulfoxide (DMSO) or ethanol and then diluted in 50 mM Tris-HCl, pH 7.4 buffer containing 150 mM NaCl and 100 mM EDTA. Membrane homogenates were made from guinea pig brain for σ1 binding assays and rat liver for σ2 binding assays. Membrane homogenates were diluted with 50 mM Tris-HCl buffer, pH 8.0, and incubated at 25° C. in a total volume of 150 μL in 96-well plates with the radioligand and test compounds with concentrations ranging from 0.1 nM to 10 μM. After incubation was completed, the reactions were terminated by the addition of 150 μL of ice-cold wash buffer (10 mM Tris-HCl, 150 mM NaCl, pH 7.4) using a 96-channel transfer pipette (Fisher Scientific, Pittsburgh, Pa.), and the samples harvested and filtered rapidly through 96-well fiberglass filter plate (Millipore, Billerica, Mass.) that had been presoaked with 100 μL of 50 mM Tris-HCl buffer, pH 8.0, for 1 h. Each filter was washed three times with 200 μL of ice cold wash buffer.
Ki values were calculated using the method of Cheng and Prusoff20 and represent mean values±SEM.

Take `COc1ccc(C)cc1NC(=O)OC1CC2CCCC(C1)N2CCCCCCN` (centres unmarked) [SV119]: the Ki (as a rule, a dissociation constant, usually derived from enzyme kinetics or from competition with a known ligand) on σ2 receptor (setting [5]) came to 19.9 nM. Moreover, the “concentration at which the highest level of caspase-3/7 activity was detected” value (“concentration at which the highest level” for short) with caspase-3/7 is 80 µM. In the experiment with EMT-6 cells [1] (100 μM, 16 h), the “percentage of EMT-6 cells with positive annexin V staining” value (shortened to “percentage of EMT-6 cells”) is on record as 73.5±2.4%. Further, in the experiment with EMT-6 cells [2] (EMT-6, 100 μM, 16 h), the “TUNEL positive cells (flow cytometry)” value is on record as 37%. Moreover, the “DNA fragmentation, TUNEL staining in nuclei (fluorescence microscopy)” value (“DNA fragmentation, TUNEL staining” for short) with EMT-6 cells [2] was “positive TUNEL staining”. The figures for the EC50 with EMT-6 cells [3] (setting [6]) and with EMT-6 cells [3] (setting [7]) were 16 ± 1.4 µM and 11 µM, respectively. Also, the IC50 (in general, the concentration needed to halve the response being measured) is 36.7 ± 3.3 µM in experiment [4] (setting [8]) and 20.6 ± 2.7 µM in experiment [4] (setting [9]).

For the compound `COc1ccc(C)cc1NC(=O)O[C@H]1C[C@H]2CCC[C@@H](C1)N2Cc1ccc(N(C)C)cc1` [WC-II-26], on σ2 receptor, the “σ1/σ2 Ratio” value is on record as 511. Also, the figures for the Ki at σ2 receptor (setting [5]) and on σ2 receptor (setting [10]) were 10.8 nM and 10.9 nM, respectively. In addition, in the experiment on caspase-3/7, the “concentration at which the highest level” value turned out to be 80 µM. Besides, in the experiment with EMT-6 cells [1] (40 μM, 48 h), the “percentage of EMT-6 cells” value was determined as 96.6±2.7%. Further, the “TUNEL positive cells (flow cytometry)” value in the experiment on EMT-6 cells [2] (EMT-6, 40 μM, 48 h) is on record as 46%. Also, the “DNA fragmentation, TUNEL staining” value in the experiment with EMT-6 cells [2] was “positive TUNEL staining”. In addition, the figures for the EC50 in the experiment on EMT-6 cells [3] (setting [6]) and in the experiment on EMT-6 cells [3] (setting [7]) were 42.5 ± 3.5 µM and 12.5 µM, respectively. For the same compound, the IC50 worked out at 51.6 ± 6 µM in experiment [4] (setting [8]) and 43.2 ± 2 µM in experiment [4] (setting [9]).

`O[C@@H](CN1C2CCC1CC(c1ccccc1)C2)c1cccc(Br)c1` (some centres unmarked) [RHM-I-138]: the “σ1/σ2 Ratio” value on σ2 receptor worked out at 44. Moreover, the Ki on σ2 receptor (setting [5]) and on σ2 receptor (setting [10]) was 12.3 nM in each case. The “concentration at which the highest level” value with caspase-3/7 worked out at 50 µM. Moreover, the “percentage of EMT-6 cells” value in the experiment on EMT-6 cells [1] (40 μM, 16 h) is reported as 48±6.4%. Further, in the experiment with EMT-6 cells [2] (EMT-6, 40 μM, 16 h), the “TUNEL positive cells (flow cytometry)” value is recorded as 40%. In addition, in the experiment with EMT-6 cells [2], the “DNA fragmentation, TUNEL staining” value is given as “positive TUNEL staining”. Further, the concentration for a half-maximal effect (EC50) (as a rule, the midpoint of the concentration-response curve) in the experiment with EMT-6 cells [3] (setting [6]) is 32.5 ± 3.5 µM; in the experiment with EMT-6 cells [3] (setting [7]), 16 µM; in the experiment with EMT-6 cells [3] (read-out: EC50 (μM, 48 hours), EMT-6, MTS assay, 48 hours), 16.5 ± 2.1 µM. For the same compound, the IC50 amounted to 26.7 ± 4.3 µM in experiment [4] (setting [8]) and 19 ± 1.8 µM in experiment [4] (setting [9]).
